Measurements as given in PMC3602154 (PLoS ONE, 2013).

How the values were obtained:
Alpha1D = molecular target: T1, Alpha1D (Homo sapiens, UniProt P25100); experiment: PDSP radioligand binding, adrenoceptor α1D
T1 sequence (P25100 1-572): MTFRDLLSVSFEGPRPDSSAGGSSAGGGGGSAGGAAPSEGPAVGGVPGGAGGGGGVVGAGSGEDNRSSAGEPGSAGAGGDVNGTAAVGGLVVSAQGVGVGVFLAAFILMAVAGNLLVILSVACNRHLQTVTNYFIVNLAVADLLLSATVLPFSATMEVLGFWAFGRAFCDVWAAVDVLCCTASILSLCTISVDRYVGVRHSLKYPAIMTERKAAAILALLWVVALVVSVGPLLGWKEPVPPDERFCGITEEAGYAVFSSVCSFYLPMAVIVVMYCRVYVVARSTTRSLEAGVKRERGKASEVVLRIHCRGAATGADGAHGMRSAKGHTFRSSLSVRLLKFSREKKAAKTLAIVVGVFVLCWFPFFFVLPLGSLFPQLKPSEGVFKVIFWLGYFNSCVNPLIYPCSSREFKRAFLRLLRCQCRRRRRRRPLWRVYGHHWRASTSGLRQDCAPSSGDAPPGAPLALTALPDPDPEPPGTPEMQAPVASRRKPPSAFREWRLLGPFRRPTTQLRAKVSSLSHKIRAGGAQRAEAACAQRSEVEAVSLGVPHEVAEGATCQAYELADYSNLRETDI
Description: (§1) [17] and http://pdsp.med.unc.edu/UNC-CH%20Protocol%20Book.pdf.

MOR = MOR (Homo sapiens, UniProt P35372); experiment: PDSP radioligand binding, opioid receptor MOR
MOR, sequence (P35372 whole entry): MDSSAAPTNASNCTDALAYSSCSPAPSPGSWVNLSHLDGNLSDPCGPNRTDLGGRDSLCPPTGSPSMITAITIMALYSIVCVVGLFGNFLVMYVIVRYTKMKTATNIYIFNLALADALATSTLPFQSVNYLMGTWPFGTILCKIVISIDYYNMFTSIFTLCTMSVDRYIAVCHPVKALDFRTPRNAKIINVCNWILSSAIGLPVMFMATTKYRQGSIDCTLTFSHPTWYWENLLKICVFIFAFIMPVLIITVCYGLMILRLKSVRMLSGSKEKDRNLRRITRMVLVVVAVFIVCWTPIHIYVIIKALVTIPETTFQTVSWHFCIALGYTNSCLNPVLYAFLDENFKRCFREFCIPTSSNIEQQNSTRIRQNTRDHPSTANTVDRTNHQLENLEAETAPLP
Description: as §1

5-HT2C = molecular target: T2, 5-HT2C (Homo sapiens, UniProt P28335); experiment: PDSP radioligand binding, serotonin receptor 5-HT2C
T2 sequence (P28335 33-458): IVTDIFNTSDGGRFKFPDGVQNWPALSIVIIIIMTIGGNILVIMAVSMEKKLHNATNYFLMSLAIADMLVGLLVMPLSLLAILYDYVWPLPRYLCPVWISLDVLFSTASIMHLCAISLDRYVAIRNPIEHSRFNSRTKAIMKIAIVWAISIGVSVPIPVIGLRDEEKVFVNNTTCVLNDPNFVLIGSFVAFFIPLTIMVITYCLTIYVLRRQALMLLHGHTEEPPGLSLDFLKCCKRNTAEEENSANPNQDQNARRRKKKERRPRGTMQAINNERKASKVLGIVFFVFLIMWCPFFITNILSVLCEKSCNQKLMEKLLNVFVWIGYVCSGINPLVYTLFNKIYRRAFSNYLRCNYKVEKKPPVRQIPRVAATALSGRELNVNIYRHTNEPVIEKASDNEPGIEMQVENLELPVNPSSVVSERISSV
Description: as §1

H1 = H1 (Homo sapiens, UniProt P35367); experiment: PDSP radioligand binding, histamine receptor H1
H1, sequence (P35367 whole entry): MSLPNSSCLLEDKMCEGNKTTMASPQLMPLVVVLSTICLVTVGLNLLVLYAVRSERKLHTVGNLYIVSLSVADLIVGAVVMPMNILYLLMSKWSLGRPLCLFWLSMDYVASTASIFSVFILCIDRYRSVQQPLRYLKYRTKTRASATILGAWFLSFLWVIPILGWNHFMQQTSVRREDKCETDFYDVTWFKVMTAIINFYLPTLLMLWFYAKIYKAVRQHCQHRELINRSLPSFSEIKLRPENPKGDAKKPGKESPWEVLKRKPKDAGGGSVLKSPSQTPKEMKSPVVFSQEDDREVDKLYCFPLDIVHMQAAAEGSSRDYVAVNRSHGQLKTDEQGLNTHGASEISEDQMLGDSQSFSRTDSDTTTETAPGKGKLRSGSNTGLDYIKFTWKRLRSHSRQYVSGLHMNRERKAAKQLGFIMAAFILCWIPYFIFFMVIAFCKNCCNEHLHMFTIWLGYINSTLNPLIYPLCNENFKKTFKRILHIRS
Description: as §1

5-ht5a = 5-ht5a (Homo sapiens, UniProt P47898); experiment: PDSP radioligand binding, serotonin receptor 5-HT5
5-ht5a, sequence (P47898 whole entry, species assumed): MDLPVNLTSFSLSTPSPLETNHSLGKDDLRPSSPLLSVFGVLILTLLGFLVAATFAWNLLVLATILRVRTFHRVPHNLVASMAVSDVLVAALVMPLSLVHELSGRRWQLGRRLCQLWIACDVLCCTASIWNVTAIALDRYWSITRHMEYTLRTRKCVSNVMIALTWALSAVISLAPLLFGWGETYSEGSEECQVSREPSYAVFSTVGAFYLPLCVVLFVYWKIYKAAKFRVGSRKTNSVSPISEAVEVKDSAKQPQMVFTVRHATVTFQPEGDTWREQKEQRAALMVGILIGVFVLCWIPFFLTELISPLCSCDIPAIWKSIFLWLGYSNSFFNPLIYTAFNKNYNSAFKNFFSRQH
Description: as §1

5-ht1e = 5-ht1e (Homo sapiens, UniProt P28566); experiment: PDSP radioligand binding, serotonin receptor 5-HT1E
5-ht1e, sequence (P28566 whole entry, species assumed): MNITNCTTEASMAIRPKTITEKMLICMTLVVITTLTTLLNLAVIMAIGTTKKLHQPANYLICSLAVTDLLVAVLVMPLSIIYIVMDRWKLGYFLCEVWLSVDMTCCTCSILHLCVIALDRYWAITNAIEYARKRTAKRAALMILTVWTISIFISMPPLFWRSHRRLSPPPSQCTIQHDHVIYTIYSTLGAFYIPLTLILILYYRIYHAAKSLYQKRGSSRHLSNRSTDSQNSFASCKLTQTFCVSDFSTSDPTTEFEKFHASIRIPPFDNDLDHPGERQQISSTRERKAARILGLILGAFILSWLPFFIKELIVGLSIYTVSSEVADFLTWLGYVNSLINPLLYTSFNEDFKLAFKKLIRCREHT
Description: as §1

H4 = H4 (Homo sapiens, UniProt Q9H3N8); experiment: PDSP radioligand binding, histamine receptor H4
Description: as §1

M4 = molecular target: T3, M4 (Homo sapiens, UniProt P08173); experiment: PDSP radioligand binding, muscarinic receptor M4
T3 sequence (P08173 1-479): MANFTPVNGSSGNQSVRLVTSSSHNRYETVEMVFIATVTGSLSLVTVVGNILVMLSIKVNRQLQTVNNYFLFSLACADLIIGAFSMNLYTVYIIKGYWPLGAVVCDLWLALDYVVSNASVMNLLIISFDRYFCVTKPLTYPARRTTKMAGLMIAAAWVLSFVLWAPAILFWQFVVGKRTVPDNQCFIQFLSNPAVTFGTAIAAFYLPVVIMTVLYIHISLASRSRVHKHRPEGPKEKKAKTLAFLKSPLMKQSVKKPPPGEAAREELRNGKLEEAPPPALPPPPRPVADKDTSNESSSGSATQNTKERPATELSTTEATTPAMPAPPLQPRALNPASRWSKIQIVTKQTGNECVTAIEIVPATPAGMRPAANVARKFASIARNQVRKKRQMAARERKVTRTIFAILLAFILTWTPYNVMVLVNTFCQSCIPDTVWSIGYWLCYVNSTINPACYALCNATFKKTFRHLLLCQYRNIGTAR
Description: as §1

5-HT3 = molecular target: T4, 5-HT3 (Homo sapiens, UniProt P46098); experiment: PDSP radioligand binding, serotonin receptor 5-HT3
T4 sequence (P46098 24-478): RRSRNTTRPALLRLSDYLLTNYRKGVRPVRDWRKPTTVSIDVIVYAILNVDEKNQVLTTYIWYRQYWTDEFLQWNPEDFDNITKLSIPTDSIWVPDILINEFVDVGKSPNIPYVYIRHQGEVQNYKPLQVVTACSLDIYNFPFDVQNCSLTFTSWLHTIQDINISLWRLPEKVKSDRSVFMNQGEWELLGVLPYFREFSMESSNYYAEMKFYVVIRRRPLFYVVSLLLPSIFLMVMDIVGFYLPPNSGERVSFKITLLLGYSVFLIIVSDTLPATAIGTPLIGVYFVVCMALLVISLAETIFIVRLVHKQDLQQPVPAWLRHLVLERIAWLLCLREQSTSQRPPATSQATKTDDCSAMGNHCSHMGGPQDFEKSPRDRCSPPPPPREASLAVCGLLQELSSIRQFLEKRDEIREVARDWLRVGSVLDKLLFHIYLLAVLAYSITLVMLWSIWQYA
Description: as §1

GABAB = GABAB (Homo sapiens, UniProt Q9UBS5); experiment: PDSP radioligand binding, GABA-B
GABAB, sequence (Q9UBS5 15-961 limits assumed): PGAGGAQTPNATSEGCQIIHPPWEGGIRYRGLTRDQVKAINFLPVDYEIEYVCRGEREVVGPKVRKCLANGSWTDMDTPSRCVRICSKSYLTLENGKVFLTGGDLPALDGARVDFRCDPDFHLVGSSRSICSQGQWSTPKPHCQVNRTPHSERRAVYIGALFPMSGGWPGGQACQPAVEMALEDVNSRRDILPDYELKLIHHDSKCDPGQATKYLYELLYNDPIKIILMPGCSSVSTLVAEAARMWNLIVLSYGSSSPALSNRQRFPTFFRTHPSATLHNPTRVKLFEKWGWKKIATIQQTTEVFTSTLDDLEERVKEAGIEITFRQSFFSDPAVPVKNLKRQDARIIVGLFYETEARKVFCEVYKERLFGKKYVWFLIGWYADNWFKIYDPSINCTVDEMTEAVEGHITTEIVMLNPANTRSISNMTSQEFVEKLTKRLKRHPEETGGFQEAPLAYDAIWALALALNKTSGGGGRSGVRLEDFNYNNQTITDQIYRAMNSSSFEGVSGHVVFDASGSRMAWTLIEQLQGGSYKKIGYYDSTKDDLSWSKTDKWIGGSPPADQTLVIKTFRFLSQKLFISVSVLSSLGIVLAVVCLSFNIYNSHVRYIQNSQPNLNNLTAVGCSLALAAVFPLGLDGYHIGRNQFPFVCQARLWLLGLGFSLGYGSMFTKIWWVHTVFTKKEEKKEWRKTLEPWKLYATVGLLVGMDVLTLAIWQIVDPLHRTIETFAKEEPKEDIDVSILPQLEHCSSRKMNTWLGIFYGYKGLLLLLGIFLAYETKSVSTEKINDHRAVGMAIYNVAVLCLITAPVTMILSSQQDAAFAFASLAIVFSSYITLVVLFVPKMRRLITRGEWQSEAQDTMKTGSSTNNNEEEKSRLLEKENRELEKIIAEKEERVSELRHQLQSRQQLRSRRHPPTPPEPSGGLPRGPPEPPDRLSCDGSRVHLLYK
GABAB, sequence (O75899 42-941 partner): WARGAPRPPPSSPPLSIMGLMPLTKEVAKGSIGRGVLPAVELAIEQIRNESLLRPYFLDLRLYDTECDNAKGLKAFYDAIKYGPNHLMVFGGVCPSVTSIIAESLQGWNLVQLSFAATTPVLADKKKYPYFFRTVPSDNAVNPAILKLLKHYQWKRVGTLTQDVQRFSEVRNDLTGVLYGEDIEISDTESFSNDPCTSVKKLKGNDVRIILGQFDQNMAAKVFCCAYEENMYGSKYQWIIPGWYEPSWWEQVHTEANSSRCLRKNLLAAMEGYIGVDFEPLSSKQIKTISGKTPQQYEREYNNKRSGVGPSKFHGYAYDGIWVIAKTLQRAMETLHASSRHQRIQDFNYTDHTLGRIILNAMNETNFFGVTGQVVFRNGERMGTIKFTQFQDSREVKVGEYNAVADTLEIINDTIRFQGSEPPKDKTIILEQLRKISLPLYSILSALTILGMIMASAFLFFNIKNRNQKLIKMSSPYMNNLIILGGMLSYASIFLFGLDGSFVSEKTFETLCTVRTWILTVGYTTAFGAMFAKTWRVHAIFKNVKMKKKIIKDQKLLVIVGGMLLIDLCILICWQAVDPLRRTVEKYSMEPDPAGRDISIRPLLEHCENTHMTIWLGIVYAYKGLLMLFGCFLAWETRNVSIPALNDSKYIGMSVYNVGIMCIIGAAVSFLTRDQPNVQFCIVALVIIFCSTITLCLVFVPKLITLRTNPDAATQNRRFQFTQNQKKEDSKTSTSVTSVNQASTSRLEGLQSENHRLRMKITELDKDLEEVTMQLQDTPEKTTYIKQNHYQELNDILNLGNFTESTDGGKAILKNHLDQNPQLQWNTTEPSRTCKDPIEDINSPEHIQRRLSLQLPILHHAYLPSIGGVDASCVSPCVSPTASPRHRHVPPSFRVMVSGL
Description: as §1

5-HT7 = 5-HT7 (Homo sapiens, UniProt P34969); experiment: PDSP radioligand binding, serotonin receptor 5-HT7
5-HT7, sequence (P34969 whole entry, species assumed): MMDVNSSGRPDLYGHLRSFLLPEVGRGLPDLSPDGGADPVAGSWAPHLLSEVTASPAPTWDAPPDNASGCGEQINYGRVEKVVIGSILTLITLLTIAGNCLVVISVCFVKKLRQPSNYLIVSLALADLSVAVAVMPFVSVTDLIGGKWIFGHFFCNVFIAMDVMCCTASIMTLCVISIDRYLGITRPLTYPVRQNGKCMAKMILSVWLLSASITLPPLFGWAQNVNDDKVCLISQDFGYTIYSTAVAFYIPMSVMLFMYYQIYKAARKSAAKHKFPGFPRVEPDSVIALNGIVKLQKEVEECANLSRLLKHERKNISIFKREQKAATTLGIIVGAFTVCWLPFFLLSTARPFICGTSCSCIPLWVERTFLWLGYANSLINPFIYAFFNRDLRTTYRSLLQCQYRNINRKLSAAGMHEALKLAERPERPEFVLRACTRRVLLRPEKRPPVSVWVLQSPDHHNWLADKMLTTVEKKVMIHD
Description: as §1

M1 = molecular target: T5, M1 (Homo sapiens, UniProt P11229); experiment: PDSP radioligand binding, muscarinic receptor M1
T5 sequence (P11229 1-460): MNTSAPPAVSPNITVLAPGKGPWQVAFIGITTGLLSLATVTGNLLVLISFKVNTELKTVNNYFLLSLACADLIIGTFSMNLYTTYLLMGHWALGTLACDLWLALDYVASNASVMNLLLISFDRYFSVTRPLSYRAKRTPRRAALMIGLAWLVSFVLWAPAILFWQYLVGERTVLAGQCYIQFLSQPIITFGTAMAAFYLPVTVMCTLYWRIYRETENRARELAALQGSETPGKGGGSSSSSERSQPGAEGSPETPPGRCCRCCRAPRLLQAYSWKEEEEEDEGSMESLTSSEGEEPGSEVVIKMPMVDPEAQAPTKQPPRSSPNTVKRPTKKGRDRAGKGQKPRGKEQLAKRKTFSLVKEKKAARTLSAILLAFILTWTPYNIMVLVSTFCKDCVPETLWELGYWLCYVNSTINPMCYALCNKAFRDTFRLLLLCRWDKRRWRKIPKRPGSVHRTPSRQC
Description: as §1

A4B2 = A4B2 (Rattus norvegicus, UniProt P09483+P12390); experiment: PDSP nicotinic receptor A4B2**; format: binding
A4B2, sequence (P09483 31-630): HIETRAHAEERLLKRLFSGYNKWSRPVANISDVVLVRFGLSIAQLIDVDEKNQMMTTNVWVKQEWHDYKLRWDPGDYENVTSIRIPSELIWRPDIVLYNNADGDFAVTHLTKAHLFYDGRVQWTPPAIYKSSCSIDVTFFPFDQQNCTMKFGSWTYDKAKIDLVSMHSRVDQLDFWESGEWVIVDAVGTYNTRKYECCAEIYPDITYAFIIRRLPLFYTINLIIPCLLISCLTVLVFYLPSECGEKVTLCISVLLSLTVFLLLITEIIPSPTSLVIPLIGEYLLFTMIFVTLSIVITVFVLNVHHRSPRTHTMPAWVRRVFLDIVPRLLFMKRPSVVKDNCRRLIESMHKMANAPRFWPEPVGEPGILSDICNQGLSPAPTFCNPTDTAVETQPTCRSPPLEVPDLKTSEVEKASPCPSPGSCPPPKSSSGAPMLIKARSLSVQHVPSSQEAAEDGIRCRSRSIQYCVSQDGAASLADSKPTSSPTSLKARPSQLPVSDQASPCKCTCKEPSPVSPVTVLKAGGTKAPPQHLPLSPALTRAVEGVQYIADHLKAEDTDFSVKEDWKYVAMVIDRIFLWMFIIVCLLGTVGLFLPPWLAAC
A4B2, sequence (P12390 25-500): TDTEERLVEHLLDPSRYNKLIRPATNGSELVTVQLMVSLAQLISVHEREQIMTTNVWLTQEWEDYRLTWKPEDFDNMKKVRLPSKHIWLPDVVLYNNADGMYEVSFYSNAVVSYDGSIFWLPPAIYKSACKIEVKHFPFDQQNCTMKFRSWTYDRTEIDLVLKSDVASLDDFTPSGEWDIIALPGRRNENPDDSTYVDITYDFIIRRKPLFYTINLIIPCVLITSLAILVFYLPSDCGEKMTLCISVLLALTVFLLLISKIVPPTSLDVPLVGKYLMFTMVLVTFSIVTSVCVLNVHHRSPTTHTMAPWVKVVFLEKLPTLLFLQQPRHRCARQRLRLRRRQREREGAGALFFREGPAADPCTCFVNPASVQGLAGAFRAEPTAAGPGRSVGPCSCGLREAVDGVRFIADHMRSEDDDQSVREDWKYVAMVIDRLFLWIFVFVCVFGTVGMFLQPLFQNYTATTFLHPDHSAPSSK
Description: as §1

SMILES | Ki (Alpha1D) | Ki (MOR) | Ki (5-HT2C) | Ki (H1) | Ki (5-ht5a) | Ki (5-ht1e) | Ki (H4) | Ki (M4) | Ki (5-HT3) | Ki (GABAB) | Ki (5-HT7) | Ki (M1) | Ki (A4B2)
CCNC1(c2cccc(OC)c2)CCCCC1=O (racemic) [Methoxetamine, (RS)-2-(ethylamino)-2-(3-methoxyphenyl)cyclohexanone] | > 10 µM | > 10 µM | > 10 µM | 2.96 µM | > 10 µM | > 10 µM | > 10 µM | > 10 µM | > 10 µM | > 10 µM | > 10 µM | > 10 µM | > 10 µM
COc1cccc(C2(N3CCCCC3)CCCCC2)c1 [3-MeO-PCP, 1-[1-(3-methoxyphenyl)cyclohexyl]piperidine] | > 10 µM | > 10 µM | > 10 µM | > 10 µM | > 10 µM | > 10 µM | > 10 µM | > 10 µM | > 10 µM | > 10 µM | > 10 µM | > 10 µM | > 10 µM
COc1ccc(C2(N3CCCCC3)CCCCC2)cc1 [4-MeO-PCP, 1-[1-(4-methoxyphenyl)cyclohexyl]piperidine] | > 10 µM | > 10 µM | > 10 µM | > 10 µM | > 10 µM | > 10 µM | > 10 µM | > 10 µM | > 10 µM | > 10 µM | > 10 µM | > 10 µM | > 10 µM
